According to patent EP0436598B1, “CELL SORTING TECHNIQUE AND APPLICATIONS THEREOF” (CETUS ONCOLOGY CORPORATION, priority 1988, dated 1990):

Tests used:
3G8 cells = experiment: MTT cell growth and viability assay after fluorescent dye labeling; assay type: cell-based, murine; details: hydroethidine at 10 µg/ml, Figure 2
Text: (§1) The effect of fluorescent dyes on cell viability can be measured using techniques well known to those skilled in the art. A most useful technique is described by Mosmann, T., J. of Immunol. Methods, 65:55 (1983) which measures cell viability as a function of cell number. Thus, the effect of fluorescent dyes on both cell viability and cell number can be measured simultaneously. The assay is based on the conversion of colorless tetrazolium salts by mitochrondrial dehydrogenase enzymes to a detectable colored product. A favored tetrazolium salt is MTT, or (3-(4,5- dimethylthylthiazol-2-yl)-2,5- diphenyl tetrazolium bromide).
(§2) Cell growth and viability was determined using the MTT assay as described by Mosmann, T., above. […] Each of the above cell lines was tested, and the results are shown in Figures 1, and 2 for 520C9 and 3G8 respectively. For both cell lines the assay was linear at least up to 10⁴ cells/well.
(§3) Next, the same cell lines were labeled in the presence or absence of either rhodamine 123 or hydroethidine, and subsequently cultured for three days during which cell number was measured. Cells were labeled in the presence of 0.5 µg/ml rhodamine 123 plus 10 µM verapamil, or 5 or 10 µg/ml hydroethidine. […]

520C9 cells = experiment: as above; assay type: cell-based, murine; details: labeled 20 minutes with hydroethidine 10 µg/ml at room temperature, washed, cultured three days in dye free medium; Figure 1
Text: as §1, §2, §3

Question: Which results are given for `CCN1c2cc(N)ccc2-c2ccc(N)cc2C1c1ccccc1` (stereo not drawn) [hydroethidine]?
Answer: inhibition of 3G8 growth (3G8 cells; labeled 20 minutes, cultured three days): does inhibit; start of inhibition of 3G8 growth (3G8 cells): about 24 hours; growth rate and cell numbers of 520C9 cells compared to cells grown in medium lacking the compounds (520C9 cells): virtually identical
